≈ marks a conversion by molar mass, not a printed value. Like-named read-outs stand apart in the source and are kept apart here. Blank lines part the entries; values can stand above or below the compound they belong to.
Assays:
[1] = In vitro dissolution test, microcentrifuge method, in model fasted duodenal solution (MFDS); format: physicochemical
Method: The compositions comprising the CETP inhibitor and concentration-enhancing polymer provide enhanced concentration of the dissolved CETP inhibitor in in vitro dissolution tests. It has been determined that enhanced drug concentration in in vitro dissolution tests in Model Fasted Duodenal (MFD) solution or Phosphate Buffered Saline (PBS) is a good indicator of in vivo performance and bioavailability. An appropriate PBS solution is an aqueous solution comprising 20 mM sodium phosphate (Na2HPO4), 47 mM potassium phosphate (KH2PO4), 87 mM NaCl, and 0.2 mM KCl, adjusted to pH 6.5 with NaOH. An appropriate MFD solution is the same PBS solution wherein additionally is present 7.3 mM sodium taurocholic acid and 1.4 mM of 1-palmitoyl-2-oleyl-sn-glycero-3-phosphocholine. In particular, a composition of the present invention can be dissolution-tested by adding it to MFD or PBS solution and agitating to promote dissolution.
A typical in vitro test to evaluate enhanced drug concentration in aqueous solution can be conducted by (1) adding with agitation a sufficient quantity of control composition, typically the CETP inhibitor alone, to the in vitro test medium, typically MFD or PBS solution, to achieve equilibrium concentration of the CETP inhibitor; (2) adding with agitation a sufficient quantity of test composition (e.g., the CETP inhibitor and polymer) in an equivalent test medium, such that if all the CETP inhibitor dissolved, the theoretical concentration of CETP inhibitor would exceed the equilibrium concentration of the CETP inhibitor by a factor of at least 10, and preferably a factor of at least 100; and (3) comparing the measured MDC and/or aqueous concentration versus time AUC of the test composition in the test medium with the equilibrium concentration, and/or the aqueous concentration versus time AUC of the control composition. In conducting such a dissolution test, the amount of test composition or control composition used is an amount such that if all of the CETP inhibitor dissolved the CETP inhibitor concentration would be at least 10-fold and preferably at least 100-fold that of the equilibrium concentration. Indeed, for some extremely insoluble CETP inhibitors, in order to identify the MDC achieved it may be necessary to use an amount of test composition such that if all of the CETP inhibitor dissolved, the CETP inhibitor concentration would be 10,000-fold or even more, that of the equilibrium concentration of the CETP inhibitor.
The concentration of dissolved CETP inhibitor is typically measured as a function of time by sampling the test medium and plotting CETP inhibitor concentration in the test medium vs. time so that the MDC can be ascertained. The MDC is taken to be the maximum value of dissolved CETP inhibitor measured over the duration of the test.
To avoid large CETP inhibitor particulates which would give an erroneous determination, the test solution is either filtered or centrifuged. “Dissolved CETP inhibitor” is typically taken as that material that either passes a 0.45 μm syringe filter or, alternatively, the material that remains in the supernatant following centrifugation. Filtration can be conducted using a 13 mm, 0.45 μm polyvinylidine difluoride syringe filter sold by Scientific Resources under the trademark TITAN®. Centrifugation is typically carried out in a polypropylene microcentrifuge tube by centrifuging at 13,000 G for 60 seconds. Other similar filtration or centrifugation methods can be employed and useful results obtained. For example, using other types of microfilters may yield values somewhat higher or lower (±10-40%) than that obtained with the filter specified above but will still allow identification of preferred dispersions. […]

[2] = Solubility in water; format: physicochemical
Text: The invention is useful for CETP inhibitors which have sufficiently low aqueous solubility, low bioavailability or slow rate of absorption such that it is desirable to increase their concentration in an aqueous environment of use. Therefore, anytime one finds it desirable to raise the aqueous concentration of the CETP inhibitor in a use environment, the invention will find utility.

[3] = Table 9, Drug 2, receptor solution MFDS, TCmax 400 μg/mL (Examples 14-16: 100 μg/mL)
[4] = aqueous solubility determined at about 22° C. unless otherwise specified, read-out: solubility in water

Compound: COC(=O)N(Cc1cc(C(F)(F)F)cc(C(F)(F)F)c1)[C@@H]1C[C@H](C2CC2)N(C(=O)OC(C)C)c2ccc(C(F)(F)F)cc21 [Control 1, [2R,4R]4-[(3,5-bis-trifluoromethyl-benzyl)-methoxycarbonyl-amino]-2-cyclopropyl-6-trifluoromethyl-3,4-dihydro-2H-quinoline-1-carboxylic acid isopropyl ester]
Concentration ([1]; Table 2, Drug 1, MFDS, 37° C., 0 min, TCmax 100 μg/mL (Example 4: 500 μg/mL)): 0 ng/mL
Concentration ([1]; Table 2, Drug 1, MFDS, 37° C., 4 min, TCmax 100 μg/mL): <100 ng/mL
Concentration ([1]; Table 2, Drug 1, MFDS, 37° C., 10 min, TCmax 100 μg/mL (Example 4: 500 μg/mL)): 300 ng/mL
Concentration ([1]; Table 2, Drug 1, MFDS, 37° C., 20 min, TCmax 100 μg/mL): 300 ng/mL
Concentration ([1]; Table 2, Drug 1, MFDS, 37° C., 40 min, TCmax 100 μg/mL): 900 ng/mL
Concentration ([1]; Table 2, Drug 1, MFDS, 37° C., 90 min, TCmax 100 μg/mL (Example 4: 500 μg/mL)): 800 ng/mL
AUC ([1]; Table 2, Drug 1, MFDS, 37° C., to 0 min, TCmax 100 μg/mL (Example 4: 500 μg/mL)): 0 min-μg/mL
AUC ([1]; Table 2, Drug 1, MFDS, 37° C., to 4 min, TCmax 100 μg/mL): <0.1 min-μg/mL
AUC ([1]; Table 2, Drug 1, MFDS, 37° C., to 10 min, TCmax 100 μg/mL (Example 4: 500 μg/mL)): 1 min-μg/mL
AUC ([1]; Table 2, Drug 1, MFDS, 37° C., to 20 min, TCmax 100 μg/mL): 4 min-μg/mL
AUC ([1]; Table 2, Drug 1, MFDS, 37° C., to 40 min, TCmax 100 μg/mL): 16 min-μg/mL
AUC ([1]; Table 2, Drug 1, MFDS, 37° C., to 90 min, TCmax 100 μg/mL (Example 4: 500 μg/mL)): 57 min-μg/mL
AUC90 ([1]; Table 3, area under the aqueous concentration versus time curve during the 90-minute test, Drug 1, MFDS, TCmax 100 μg/mL (Example 4: 500 μg/mL)): 57 min-μg/mL
Cmax, 90 ([1]; Table 3, maximum concentration of Drug 1 in solution during the 90-minute test, MFDS, TCmax 100 μg/mL (Example 4: 500 μg/mL)): 900 ng/mL

Compound: COC(=O)N(Cc1cc(C(F)(F)F)cc(C(F)(F)F)c1)[C@@H]1C[C@H](C2CC2)N(C(=O)OC(C)C)c2ccc(C(F)(F)F)cc21 [Drug 1, [2R,4R]4-[(3,5-bis-trifluoromethyl-benzyl)-methoxycarbonyl-amino]-2-cyclopropyl-6-trifluoromethyl-3,4-dihydro-2H-quinoline-1-carboxylic acid isopropyl ester]
solubility [2, 4]: < 1 µg/mL

Compound: CCOC(=O)N1c2cc(OC)c(OC)cc2[C@@H](N(Cc2cc(C(F)(F)F)cc(C(F)(F)F)c2)C(=O)OC)C[C@H]1C [Drug 4, [2R,4S]4-[(3,5-bis-trifluoromethyl-benzyl)-methoxycarbonyl-amino]-6,7-dimethoxy-2-methyl-3,4-dihydro-2H-quinoline-1-carboxylic acid ethyl ester]
solubility [2, 4]: < 1 µg/mL

Compound: CCOC(=O)N1c2cc(CC)c(CC)cc2[C@@H](N(Cc2cc(C(F)(F)F)cc(C(F)(F)F)c2)C(=O)OC)C[C@H]1C [Drug 5, [2R,4S]4-[(3,5-bis-trifluoromethyl-benzyl)-methoxycarbonyl-amino]-6,7-diethyl-2-methyl-3,4-dihydro-2H-quinoline-1-carboxylic acid ethyl ester]
solubility [2, 4]: < 1 µg/mL

Compound: CCOC(=O)N1c2cc3c(cc2[C@@H](N(Cc2cc(C(F)(F)F)cc(C(F)(F)F)c2)C(=O)OC)C[C@H]1C)CCC3 [Drug 6, [2R,4S]4-[(3,5-bis-trifluoromethyl-benzyl)-methoxycarbonyl-amino]-2-methyl-2,3,4,6,7,8-hexahydro-cyclopenta[g]quinoline-1-carboxylic acid ethyl ester]
solubility [2, 4]: < 1 µg/mL

Compound: COC(=O)N(Cc1cc(C(F)(F)F)cc(C(F)(F)F)c1)[C@H]1C[C@@H](C2CC2)N(C(=O)OC(C)C)c2ccc(C(F)(F)F)cc21 [Drug 8, [2S,4S]4-[(3,5-bis-trifluoromethyl-benzyl)-methoxycarbonyl-amino]-2-cyclopropyl-6-trifluoromethyl-3,4-dihydro-2H-quinoline-1-carboxylic acid isopropyl ester]
solubility [2, 4]: < 1 µg/mL

Compound: CC(C)c1cc2c(c(-c3ccc(F)cc3)c1[C@@H](F)c1ccc(C(F)(F)F)cc1)[C@@H](O)CC1(CCC1)C2 [Drug 10, (4′S)-5′-(4-fluorophenyl)-6′-[(S)-fluoro[4-(trifluoromethyl)phenyl]methyl]-3′,4′-dihydro-7′-(1-methylethyl)-spiro[cyclobutane-1,2′(1′H)-naphthalen]-4′-ol]
solubility [2, 4]: < 1 µg/mL

Other lines, results leading:

Concentration ([1]; Table 8, Drug 2, receptor MFDS, 0 min, TCmax 400 μg/ml (Examples 14-16: 100 μg/ml)): 0 ng/mL
Concentration ([1]; Table 8, Drug 2, receptor MFDS, 4 min, TCmax 400 μg/ml): <1000 ng/mL
Concentration ([1]; Table 8, Drug 2, receptor MFDS, 10 min, TCmax 400 μg/ml (Examples 14-16: 100 μg/ml)): <1000 ng/mL
Concentration ([1]; Table 8, Drug 2, receptor MFDS, 20 min, TCmax 400 μg/ml (Examples 14-16: 100 μg/ml)): <1000 ng/mL
Concentration ([1]; Table 8, Drug 2, receptor MFDS, 40 min, TCmax 400 μg/ml (Examples 14-16: 100 μg/ml)): <1000 ng/mL
Concentration ([1]; Table 8, Drug 2, receptor MFDS, 90 min, TCmax 400 μg/ml (Examples 14-16: 100 μg/ml)): <1000 ng/mL
AUC ([1]; Table 8, Drug 2, receptor MFDS, to 0 min, TCmax 400 μg/ml (Examples 14-16: 100 μg/ml)): 0 min-μg/ml
AUC ([1]; Table 8, Drug 2, receptor MFDS, to 4 min, TCmax 400 μg/ml): <4 min-μg/ml
AUC ([1]; Table 8, Drug 2, receptor MFDS, to 10 min, TCmax 400 μg/ml (Examples 14-16: 100 μg/ml)): <10 min-μg/ml
AUC ([1]; Table 8, Drug 2, receptor MFDS, to 20 min, TCmax 400 μg/ml (Examples 14-16: 100 μg/ml)): <20 min-μg/ml
AUC ([1]; Table 8, Drug 2, receptor MFDS, to 40 min, TCmax 400 μg/ml (Examples 14-16: 100 μg/ml)): <40 min-μg/ml
AUC ([1]; Table 8, Drug 2, receptor MFDS, to 90 min, TCmax 400 μg/ml (Examples 14-16: 100 μg/ml)): <90 min-μg/ml
AUC90 [1, 3]: <90 min-μg/mL
Cmax, 90 [1, 3]: <1000 ng/mL
AUC90 ([1]; Table 22: Drug 2, MFD solution): <90 min-μg/mL
Cmax, 90 ([1]; Table 22: Drug 2, MFD solution): <1000 ng/mL
Compound: CCOC(=O)N1c2ccc(C(F)(F)F)cc2[C@@H](N(Cc2cc(C(F)(F)F)cc(C(F)(F)F)c2)C(=O)OC)C[C@H]1CC [Control 3, [2R,4S]4-[(3,5-bis-trifluoromethyl-benzyl)-methoxycarbonyl-amino]-2-ethyl-6-trifluoromethyl-3,4-dihydro-2H-quinoline-1-carboxylic acid ethyl ester]

solubility ([2]; 22 °C, crystalline drug, read-out: solubility of crystalline Drug 2 (accurate measurements)): ~0.01 µg/mL (≈ 0.0167 µM)
solubility [2, 4]: < 1 µg/mL
Compound: CCOC(=O)N1c2ccc(C(F)(F)F)cc2[C@@H](N(Cc2cc(C(F)(F)F)cc(C(F)(F)F)c2)C(=O)OC)C[C@H]1CC [Drug 2, [2R,4S]4-[(3,5-bis-trifluoromethyl-benzyl)-methoxycarbonyl-amino]-2-ethyl-6-trifluoromethyl-3,4-dihydro-2H-quinoline-1-carboxylic acid ethyl ester]

solubility [2, 4]: < 0.1 µg/mL
Compound: CCCOC(=O)N1c2ccc(C(F)(F)F)cc2[C@@H](N(Cc2cc(C(F)(F)F)cc(C(F)(F)F)c2)C(=O)OC)C[C@H]1CC [Drug 3, [2R,4S]4-[(3,5-bis-trifluoromethyl-benzyl)-methoxycarbonyl-amino]-2-ethyl-6-trifluoromethyl-3,4-dihydro-2H-quinoline-1-carboxylic acid propyl ester]

solubility [2, 4]: < 1 µg/mL
Compound: CC[C@@H]1C[C@H](N(Cc2cc(C(F)(F)F)cc(C(F)(F)F)c2)C(C)=O)c2cc(C(F)(F)F)ccc2N1C(=O)OC(C)C [Drug 7, [2R,4S]4-[acetyl-(3,5-bis-trifluoromethyl-benzyl)-amino]-2-ethyl-6-trifluoromethyl-3,4-dihydro-2H-quinoline-1-carboxylic acid isopropyl ester]

Reference: patent publication US8389011B2, “Pharmaceutical compositions of cholesteryl ester transfer protein inhibitors” (Bend Research, Inc., priority 2000, dated 2013)
